# In patent US20260344670A1, “BIXLOZONE MIXTURES WITH PETHOXAMID” (FMC CORPORATION, priority 2022, published 2026):
# Key:
# Type in all cases: in vivo
# [1] = tested on: Convolvulus arvensis (CONAR); experiment: pre-emergence control of CONAR in corn (efficacy, Colby synergy); conditions: bixlozone 375, pethoxamid 300, mixtures 375 + 300 g/ha
# Description: (§1) [formula] • where ppm=milligrams of active ingredient (=a.i.) per liter of spray mixture X=% action by component A using p ppm of active ingredient Y=% action by component B using q ppm of active ingredient. If the ratio R defined as the action actually observed (O) divided by the expected action (E) is >1 then the action of the combination is superadditive, i.e. there is a synergistic effect. For a more detailed description of the Colby formula, see Colby, S. R. “Calculating Synergistic and Antagonistic Responses of Herbicide Combination”, Weeds, Vol. 15, pages 20-22; 1967; see also Limpel et al., Proc. NEWCC 16:48-53 (1962).
# (§2) As used herein, rating timings correspond to the following: A1=weed assessment at BBCH 11-12; A2=4 weeks after the application; A3=when ZEAMX crop reaches BBCH 18 (row closure); and A4=BBCH 51-59 of the ZEAMX crop.
# (§3) The herbicidal compounds bixlozone and pethoxamid were applied in a variety of forms and at a variety of amounts, application rates, and normalities. Efficacy of the herbicidal compositions was evaluated with reference to a scale of 0% to 100% in comparison with untreated control plots. 0 means no damage to the harmful plants and 100 means complete destruction of the harmful plants. Plants per square meter is indicated by “pl/m^2”, and grams per hectare is indicated by “g/ha”. […]
# [2] = tested on: Fallopia convolvulus (POLCO); experiment: pre-emergence control of POLCO in corn (efficacy, Colby synergy)
# Description: as §1, §2, §3
# [3] = tested on: Chenopodium hybridum (CHEHY); experiment: pre-emergence control of CHEHY in corn (efficacy, Colby synergy); conditions: bixlozone 375, pethoxamid 300, mixtures 375 + 300 g/ha
# Description: as §1, §2, §3
# [4] = tested on: Mercurialis annua (MERAN); experiment: pre-emergence control of MERAN in corn (efficacy, Colby synergy)
# Description: as §1, §2
# (§4) The herbicidal compounds bixlozone and pethoxamid were applied in a variety of forms and at a variety of amounts, application rates, and normalities. Efficacy of the herbicidal compositions was evaluated with reference to a scale of 0% to 100% in comparison with untreated control plots. 0 means no damage to the harmful plants and 100 means complete destruction of the harmful plants. Plants per square meter is indicated by “pl/m^2”, and grams per hectare is indicated by “g/ha”. The acronym “EC” means emulsifiable concentrate (a liquid, homogenous formulation to be applied as an emulsion after dilution with water); “SC” means suspension concentrate (a stable suspension of active ingredient(s) with water as the fluid); “ZC” refers to a mixed formulation of CS and SC (a stable suspension of capsules and active ingredient(s) in a fluid, normally intended for dilution with water before use).
# (§5) Various forms, compositions, and mixtures of bixlozone and pethoxamid were applied to corn before emergence. […] There was equivalent efficacy for fixed rate of bixlozone combined with pethoxamid: 1200 or 900 g/ha. Efficacy was reduced when bixlozone rate decreased from 250 to 150 g/ha. […]
# [5] = tested on: Lamium purpureum (LAMPU); experiment: pre-emergence control of LAMPU in corn (efficacy, Colby synergy); conditions: bixlozone 375, pethoxamid 300, mixtures 375 + 300 g/ha
# Description: as §1, §2, §3
# [6] = tested on: Setaria viridis (SETVI); experiment: pre-emergence control of SETVI in corn (efficacy, Colby synergy)
# Description: as §1, §2, §4, §5
# [7] = tested on: FUMOF; experiment: pre-emergence control of FUMOF in corn (efficacy, Colby synergy); conditions: bixlozone 375, pethoxamid 800, tank mix 375 + 800, premix 375 + 775 g/ha
# Description: (§6) Table 10. Synergy data of various forms and mixtures of bixlozone and pethoxamid after pre-emergence application on corn at the crop row closure stage (BBCH 18). […] The notations in parentheses show the forms and amounts (in g/ha) of applied bixlozone and pethoxamid, respectively. Where “tank” is noted, the mix is a tank mix. Where “premix” is noted, the mix is a premix. Where there is no notation, the value shown is the Colby calculation for the expected value from separate mixtures.
# (§7) Various forms, compositions, and mixtures of bixlozone and pethoxamid were applied to corn before emergence. […] Mixtures of bixlozone with 800 g/ha pethoxamid improved weed spectrum on a range of broad leaf weeds (e.g., CHEAL and ABUTH) and grasses (e.g., ECHCG, DIGSA, and SETVI). Combinations of bixlozone and pethoxamid in pre-emergence applications were very safe with no clear pethoxamid rate effect.
# (§8) Table 12. Efficacies of various forms and mixtures of bixlozone and pethoxamid after pre-emergence application on corn. Weeds were present at ≥5 pl/m^2. Concentrations are shown in parentheses in g/ha.
# [8] = tested on: Capsella bursa-pastoris (CAPBP); experiment: pre-emergence control of CAPBP in corn (efficacy, Colby synergy); conditions: bixlozone 375, pethoxamid 800, tank mix 375 + 800, premix 375 + 775 g/ha
# Description: as §1, §2, §3
# [9] = tested on: Solanum nigrum (SOLNI); experiment: pre-emergence control of SOLNI in corn (efficacy, Colby synergy)
# Description: as §1, §2, §4, §5
# [10] = tested on: GALAP; experiment: pre-emergence control of GALAP in corn (efficacy, Colby synergy)
# Description: as §6, §7, §8
# Various forms, compositions, and mixtures of bixlozone and pethoxamid were applied to corn before emergence. […]
# [11] = tested on: Sorghum halepense (SORHA); experiment: pre-emergence control of SORHA in corn (efficacy, Colby synergy)
# Description: as §1, §2, §3
# [12] = tested on: VERPE; experiment: pre-emergence control of VERPE in corn (efficacy, Colby synergy)
# Description: (§9) Table 11. Synergy data of various forms and mixtures of bixlozone and pethoxamid after pre-emergence application on corn at the crop row closure stage (BBCH 18). The notations in parentheses show the forms and amounts (in g/ha) of applied bixlozone and pethoxamid, respectively. Where “tank” is noted, the mix is a tank mix. Where “premix” is noted, the mix is a premix. Where there is no notation, the value shown is the Colby calculation for the expected value from separate mixtures.
# as §7, §8
# (§10) Various forms, compositions, and mixtures of bixlozone and pethoxamid were applied to corn before emergence. […] Mixtures of bixlozone with 300 g/ha pethoxamid improved weed spectrum on a range of broad leaf weeds (e.g., SOLNI and ABUTH). […]
# [13] = tested on: Xanthium strumarium (XANST); experiment: pre-emergence control of XANST in corn (efficacy, Colby synergy); conditions: bixlozone 375, pethoxamid 300, mixtures 375 + 300 g/ha
# Description: as §1, §2, §3
# [14] = tested on: Portulaca oleracea (POROL); experiment: pre-emergence control of POROL in corn (Colby synergy)
# Description: as §1, §4
# as §7, with “1200” for “800”, “CHEAL, MATSS,” for “CHEAL”, “POLSS)” for “ABUTH)”
# [15] = tested on: Amaranthus retroflexus (AMARE); experiment: pre-emergence control of AMARE in corn (efficacy, Colby synergy)
# Description: as §1, §2, §3
# [16] = tested on: Stellaria media (STEME); experiment: pre-emergence control of STEME in corn (efficacy, Colby synergy); conditions: bixlozone 375, pethoxamid 800, tank mix 375 + 800, premix 375 + 775 g/ha
# Description: as §1, §2, §3
# [17] = tested on: CAGSE; experiment: pre-emergence control of CAGSE in corn (efficacy, Colby synergy)
# Description: as §7, with “1200” for “800”, “CHEAL, MATSS,” for “CHEAL”, “POLSS)” for “ABUTH)”
# Table 8. Efficacies of various forms and mixtures of bixlozone and pethoxamid after pre-emergence application on corn. Weeds were present at ≥5 pl/m^2. Concentrations are shown in parentheses in g/ha.
# as §9, §10
# [18] = tested on: Abutilon theophrasti (ABUTH); experiment: pre-emergence control of ABUTH in corn (efficacy, Colby synergy)
# Description: as §1, §2, §4, §5
# [19] = bixlozone 375, pethoxamid 800, tank mix 375 + 800, premix 375 + 775 g/ha
# [20] = bixlozone 375, pethoxamid 1200, mixtures 375 + 1200 g/ha
# [21] = bixlozone 375, pethoxamid 300, mixtures 375 + 300 g/ha
smiles,measurement,setting,value
CCOCCN(C(=O)CCl)C(=C(C)C)c1ccccc1 [pethoxamid],Efficacy,[1],39.6
same,Efficacy,[2]; [19],1.3
same,Efficacy,[2]; [20],12.1
same,Efficacy,[3],0
same,Efficacy,[4]; [21],36.3
same,Efficacy,[4]; [19],16.9
same,Efficacy,[4]; [20],48.6
same,Efficacy,[5],62.5
same,Efficacy,[6]; [21],30
same,Efficacy,[6]; [19],81
same,Efficacy,[6]; [20],52.1
same,Efficacy,[7],12.5
same,Efficacy,[8],99.3
same,Efficacy,[9]; [21],28.8
same,Efficacy,[9]; [19],52.5
same,Efficacy,[9]; [20],76.5
same,Efficacy,[10]; [21],7.5
same,Efficacy,[10]; [19],7.5
same,Efficacy,[11]; [19],80
same,Efficacy,[11]; [20],27.5
same,Efficacy,[12]; [21],46.3
same,Efficacy,[12]; [19],54.4
same,Efficacy,[13],35
same,Efficacy,[14]; [21],48.8
same,Efficacy,[14]; [19],98.8
same,Efficacy,[14]; [20],94.6
same,Efficacy,[15]; [19],50.4
same,Efficacy,[15]; [20],57.5
same,Efficacy,[16],91
same,Efficacy,[17]; [21],10
same,Efficacy,[17]; [20],0
same,Efficacy,[18]; [21],42.5
same,Efficacy,[18]; [19],38.9
